The record followed here is patent US20220204512A1, “SUBSTITUTED FUSED BICYCLIC DERIVATIVE, PREPARATION METHOD THEREFOR, AND APPLICATION THEREOF IN MEDICINES” (Jiangsu Hengrui Medicine Co., Ltd., priority 2019, published 2022).

SMILES strings stand for the structures.

Series [1] deals with T1, ERK1 (Homo sapiens, UniProt P27361).
T1 construct: purchased R&D 1879-KS-010
As to the kind of experiment: ERK1 enzyme activity test (ADP-Glo Kinase Assay). Type of series: biochemical. The settings on record: ADP-Glo chemiluminescence. Here is the method:
The purpose of this experiment is to detect the inhibitory ability of the compounds of the present disclosure on the ERK1 enzyme activity and to evaluate the in vitro activity of the compounds based on the IC50. The ADP-Glo™ Kinase Assay Kit was used in this experiment. The substrate was phosphorylated under the action of the enzyme and ADP was produced at the same time. The ADP-Glo reagent was added to remove the unreacted ATP in the reaction system, and the ADP produced by the reaction was detected with kinase detection reagent. In the presence of the compound, the inhibition rate of the compound was calculated by measuring the signal value.
Preparation of Enzyme and substrate: ERK1 (1879-KS-010, R&D) and substrate (AS-61777, anaspec) were prepared to 0.75 ng/p1 and 100 μM respectively in a buffer, and then the enzyme solution and the substrate solution were prepared into a mixed solution at a volume ratio of 2:1 for later use. ATP was diluted to 300 μM with buffer. The compound was dissolved in DMSO (dimethyl sulfoxide, Shanghai Titan Scientific Co., Ltd.) to prepare a stock solution with an initial concentration of 20 mM, and then Bravo was used to prepare the compound. Finally, 3 μL of a mixed solution of enzyme and substrate, and 1 μL of different concentrations of the compound (the initial concentration was 50 μM, 4-fold dilution) were added to each well of the 384-well plate, and the plate was incubated at 30° C. for 10 minutes, and finally 1 μL of 300 μM ATP solution was added to each well, and the plate was incubated at 30° C. for 2 hours. Then 5 μL of ADP-Glo was added, and the plate was incubated at 30° C. for 40 minutes. Then 10 μL of kinase detection buffer was added, and the plate was incubated at 30° C. for 40 minutes. The 384-well plate was taken out and placed in a microplate reader (BMG labtech, PHERAstar FS), and the chemiluminescence was measured by a microplate reader.
(§1) Microsoft Excel, Graphpad Prism 5 was used to process and analyze the data.
In general terms: ADP-Glo first removes unused ATP, then detects ADP through luciferase.

The target of series [2] is T2, ERK2 (Homo sapiens, UniProt P28482).
T2 construct: purchased R&D 1879-KS-010
T2 sequence (P28482 2-360 limits assumed): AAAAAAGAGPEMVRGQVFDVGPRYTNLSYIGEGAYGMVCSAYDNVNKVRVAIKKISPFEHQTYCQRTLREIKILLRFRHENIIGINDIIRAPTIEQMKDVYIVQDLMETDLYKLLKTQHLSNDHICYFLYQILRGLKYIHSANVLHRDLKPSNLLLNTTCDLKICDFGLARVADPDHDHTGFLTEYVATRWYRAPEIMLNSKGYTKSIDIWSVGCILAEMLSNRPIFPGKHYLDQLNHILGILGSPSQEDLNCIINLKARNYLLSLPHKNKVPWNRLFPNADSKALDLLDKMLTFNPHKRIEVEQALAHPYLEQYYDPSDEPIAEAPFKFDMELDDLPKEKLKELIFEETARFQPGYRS
As to the kind of experiment: ERK2 enzyme activity test (ADP-Glo Kinase Assay). In kind it is biochemical. The note with it: ADP-Glo chemiluminescence. The essentials: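 ADP-Glo luminescence readout of ADP formed by ERK2 phosphorylating a custom peptide in Tris/MgCl2/BSA/DTT buffer. Compound (top 50 μM, 4-fold dilutions) preincubated with enzyme/substrate 10 min at 30° C, then ATP added (500 μM stock) and reacted 2 h at 30° C. IC50 from inhibition rates.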

Series [3] in a line: Pharmacokinetics assay in mice. In kind it is in vivo. The settings on record: female, mouse, po, C57 mice, intragastric, 2 mg/kg, plasma; for Vd/F: read-out: Apparent distribution volume Vz/F; for AUC: read-out: Area under curve AUC; for CL/F: read-out: Clearance CLz/F; for half-life: read-out: Half-life T1/2 (converted); for Cmax: read-out: Plasma concentration Cmax; for MRT: read-out: Residence time MRT. Here is the method:
Mice were used as test animals. The drug concentration in plasma at different time points was determined by LC/MS/MS method after administration of the compounds 1-P2, 2-P2, 4-P2, 6-P2, 9-P2, 10-P2 and 11-P2. The pharmacokinetic behavior of the compounds of the present disclosure was studied and evaluated in mice.
Sixty-three C57 mice (female, equally divided into seven groups) were purchased from Shanghai Jiesijie Laboratory Animal Co., LTD. (Certificate No.: SCXK(Shanghai)2013-0006).
A certain amount of the test compound was weighed, dissolved in 5% of DMSO by volume and 5% of tween 80, followed by the additon of 90% of normal saline to prepare a 0.1 mg/mL colorless, clear and transparent solution.
After an overnight fast, C57 mice were intragastrically administered the test compound at an administration dose of 2 mg/kg and an administration volume of 0.2 ml/10 g.
The mice were intragastrically administered the test compounds. 0.1 ml of blood was taken before the administration and at 0.25, 0.5, 1.0, 2.0, 4.0, 6.0, 8.0, 11.0 and 24.0 hours after the administration. The samples were stored in heparinized tubes, and centrifuged for 10 minutes at 3500 rpm to separate the blood plasma. The plasma samples were stored at −20° C.
The content of the test compound in the plasma of mice after intragastrical administration of the test compound at different concentrations was determined: 25 μL of […] plasma at each time point after the administration was taken, followed by the addition of 50 μL of the internal standard camptothecin solution (100ng/mL) and 200 μL of acetonitrile. The resulting solution was vortex-mixed for 5 minutes, and centrifuged for 10 minutes (4000 rpm). 4 μL of the supernatant was taken from the plasma samples for LC/MS/MS analysis.

The test system of series [4] is Colo205 cells. As to the kind of experiment: In vitro proliferation inhibition test on Colo205 tumor cells (CellTiter-Glo). The settings on record: Homo sapiens, COLO 205, 72 h; Colo205 cell proliferation, 3 days of culture, CTG. In kind it is cell-based. Here is the method:
The purpose of this experiment is to test the inhibitory activity of the compounds of the present disclosure on the proliferation of Colo205 cells (CCL-222, ATCC) in vitro. The cells were treated in vitro with different concentrations of the compounds. After 3 days of culture, the cell proliferation was tested with CTG (CellTiter-Glo® Luminescent Cell Viability Assay, Promega, Catalog No. G7573) reagent, and the in vitro activity of the compounds was evaluated according to the ICso value.
In the following, the in vitro proliferation inhibition test method of Colo205 cells is taken as an example to illustrate the method for testing the in vitro proliferation inhibitory activity of the compounds of the present disclosure on tumor cells. This method is also applicable to, but not limited to, the in vitro proliferation inhibitory activity test on other tumor cells.
Colo205 cells were digested, centrifuged and then resuspended. The single cell suspension was mixed well, and the density of viable cells was adjusted to 5.0×10^4 cells/ml with cell culture medium (RPMI1640+2% FBS), and 95 μL/well was added to a 96-well cell culture plate. Only 100 μL medium was added to the peripheral wells of the 96-well plate. The culture plate was incubated in an incubator for 24 hours (37° C., 5% CO2).
The compound was dissolved in DMSO (dimethyl sulfoxide, Shanghai Titan Scientific Co., Ltd.) and prepared as a stock solution with an initial concentration of 20 mM. The initial concentration of the small molecule compound was 2 mM, and then 4-fold diluted into 9 points, and the 10th point was DMSO. Another 96-well plate was taken, and 90 μL of cell culture medium (RPMI1640+2% FBS) was added to each well. Then 10 μL of different concentrations of the test sample was added to each well. The mixture was mixed well, and then 5μL of different concentrations of the test sample was added to the cell culture plate. Each sample has two duplicate holes. The culture plate was incubated in the incubator for 3 days (37° C., 5% CO2). The 96-well cell culture plate was taken out. 50 μL solution of CTG was added to each well, and the plate was incubated for 10 minutes at room temperature. In a microplate reader (BMG labtech, PHERAstar FS), chemiluminescence was measured with the microplate reader.
as §1
A general note: In ATP-based viability assays light output follows the ATP content of the culture.

T1 sequence (P27361 whole entry): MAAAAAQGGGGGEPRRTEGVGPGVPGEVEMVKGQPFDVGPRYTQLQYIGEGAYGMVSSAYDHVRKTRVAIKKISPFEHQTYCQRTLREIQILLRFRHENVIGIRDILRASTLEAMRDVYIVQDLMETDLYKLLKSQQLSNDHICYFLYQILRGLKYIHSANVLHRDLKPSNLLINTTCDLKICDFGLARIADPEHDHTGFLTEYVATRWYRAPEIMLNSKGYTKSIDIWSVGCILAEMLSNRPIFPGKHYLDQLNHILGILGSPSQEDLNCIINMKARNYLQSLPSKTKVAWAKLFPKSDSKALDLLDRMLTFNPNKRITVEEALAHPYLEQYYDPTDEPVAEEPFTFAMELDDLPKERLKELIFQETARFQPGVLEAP

For orientation: IC50 means the concentration needed to halve the response being measured. A lower IC50 goes with inhibition by little substance. As usually defined, the AUC is the area under the concentration-time curve, a measure of exposure. By MRT is commonly meant the average time that molecules of a dose stay in the body. For `COc1cc(F)cc([C@@H](CO)NC(=O)[C@@H](C)N2CCn3cc(-c4nc(NC5CCOCC5)ncc4Cl)cc3C2=O)c1` [Example 4-P2, (R)-2-(7-(5-Chloro-2-((tetrahydro-2H-pyran-4-yl)amino)pyrimidin-4-yl)-1-oxo-3,4-dihydropyrrolo[1,2-a]pyrazin-2(1H)-yl)-N-((S)-1-(3-fluoro-5-methoxyphenyl)-2-hydroxyethyl)propanamide], half-maximal inhibition in series [1] (IC50) was put at 3.8 nM. In series [2], the IC50 amounted to 1 nM. Moreover, in series [3], the Vd/F worked out at 3.29 L/kg, the AUC worked out at 936 ng·h/mL, the CL/F stood at 35.5 mL/min/kg and the half-life was 1.07 h. Also, in series [3], the Cmax was determined as 905 ng/mL and the MRT came to 1.07 h. In series [4], this compound displayed an IC50 of 10 nM.
Compound `Cc1cccc([C@@H](CO)NC(=O)[C@@H](C)N2CCn3cc(-c4nc(NC5CCOCC5)ncc4Cl)cc3C2=O)c1` [Example 9-P2, (R)-2-(7-(5-Chloro-2-((tetrahydro-2H-pyran-4-yl)amino)pyrimidin-4-yl)-1-oxo-3,4-dihydropyrrolo[1,2-a]pyrazin-2(1H)-yl)-N-((S)-2-hydroxy-1-(m-tolyl)ethyl)propanamide] had an IC50 in series [1] of 9 nM. In addition, in series [2], 1.9 nM corresponded to half-maximal inhibition (IC50). Besides, in series [3], the Vd/F amounted to 3.14 L/kg, the AUC was determined as 1330 ng·h/mL, the CL/F is 25.1 mL/min/kg and the half-life is 1.44 h. In series [3], the Cmax is 1410 ng/mL and the MRT was determined as 0.838 h. The IC50 in series [4] stood at 17.7 nM.
In the case of `Cc1cccc([C@@H](CO)NC(=O)[C@@H](C)N2CCc3cc(-c4nc(NC5CCOCC5)ncc4Cl)cn3C2=O)c1` [Example 11-P2, (R)-2-(6-(5-Chloro-2-((tetrahydro-2H-pyran-4-yl)amino)pyrimidin-4-yl)-1-oxo-3,4-dihydropyrrolo[1,2-c]pyrimidin-2(1H)-yl)-N-((S)-2-hydroxy-1-(m-tolyl)ethyl)propanamide], in series [1], the midpoint of inhibition, the IC50, lay at 17 nM. Moreover, the IC50 in series [2] worked out at 2.1 nM. In series [3], the Vd/F was 3.51 L/kg, the AUC is 784 ng·h/mL, the CL/F turned out to be 42.4 mL/min/kg and the half-life was 0.957 h. In addition, in series [3], the Cmax was determined as 813 ng/mL and the MRT is 1.15 h. In series [4], this compound showed an IC50 of 26 nM.
